Key:
K562 cells = test: Cell viability assay (CellTiter-Glo); format: cell-based; details: Homo sapiens, K562, 72 h; 3 days of culture; read-out: Viability EC50 K562 (C.L. 95 %)
Method: (§1) After 3 days of culture, the percentage of live cells was determined using the CellTiter-Glo Luminescent assay (Promega, Milan, Italy), following the manufacturer’s instructions.

A549 cells = test: Cell viability assay (CellTiter-Glo); format: cell-based; details: Homo sapiens, A549, 72 h; 3 days of culture; read-out: Viability EC50 A549 (C.L. 95 %)
Method: as §1

THP1 cells = test: Annexin V apoptosis assay; format: cell-based, human
Method: After 3 days of culture, the apoptotic assay was performed using the Annexin V-FITC Kit (Miltenyi Biotec, Italy), according to the manufacturer's instructions. The apoptotic cells were acquired on […] and analyzed using Kaluza software version 2.1 (Beckman Coulter, Fullerton, CA).

THP-1 cells = test: Co-localization competition assay with Bay2402234 (Manders coefficient); format: cell-based, human; details: 10 μM each, 3 h, Manders coefficient, Welch's t test p = 0.0024
Method: Colocalization between hDHODH inhibitors and mitochondria was quantified using Manders coefficient (Figure D).
THP-1 cells were incubated for 3 h with hDHODHi 11a and Bay240223410 at 10 μM, either alone or in combination. After incubation, the cells were washed and stained with Red-MitoTracker CMXRos (Thermo Fisher, Carlsbad, CA, USA) at a concentration of 100 nM for 30 min at 37 °C. Cells were imaged with a Leica TCS SP8 confocal system (Leica Microsystems) equipped with 4 excitation lasers (405 Diode, Argon, DPSS561, HeNe633). Images were acquired with a HCX PL APO 63×/1.4 NA oil-immersion objective with a resolution of 81 nm × 81 nm and were processed and analyzed with ImageJ software (Rasband, W.S., U.S. National Institutes of Health, Bethesda, […]). In particular, colocalization was analyzed with JACoP plugin and Manders’ coefficient was calculated

## Oc1nn2ccccc2c1/C=C/c1c(F)c(F)c(-c2ccccc2)c(F)c1F [Compound 11a, (E)-3-(2-(2,3,5,6-Tetrafluoro-[1,1’-biphenyl]-4-yl)vinyl)pyrazolo[1,5-a]pyridin-2-ol]
K562 cells
  EC50: 114 nM
A549 cells
  EC50: 423 nM
THP1 cells; Homo sapiens, THP-1, 72 h, 3 days of culture, Annexin V-FITC, read-out: Apoptosis EC50 THP1 (C.L. 95 %)
  EC50: 693 nM
THP1 cells; lower than MEDS433, THP1 apoptosis
  antileukemic activity relative to MEDS433: ~10 fold
THP1 cells; uridine 100 μM, compound 1 µM, THP-1, 3 days
  pro-apoptotic activity after adding exogenous uridine: completely reversed
THP-1 cells
  colocalization signal with the mitochondria in the presence of Bay2402234: decreased slightly but statistically significantly
